# Data published in ChEMBL document CHEMBL2407038, “Cyclophilin inhibitors as antiviral agents” (Bioorg Med Chem Lett, 2013).
# Square brackets hold non-standard residues; d marks the D form. Peptide text beside a SMILES is read from it. MeBmt = C/C=C/C[C@@H](C)[C@@H](O)[C@H](NC)C(=O)O; NEtVal = CCN[C@H](C(=O)O)C(C)C; NMeL = CN[C@@H](CC(C)C)C(=O)O; NMeV = CN[C@H](C(=O)O)C(C)C; dHiv = CC(C)[C@@H](O)C(=O)O; dNMeA = CN[C@H](C)C(=O)O; Abu = CC[C@H](N)C(=O)O
# Experiments:
# Assay in all cases: microbe, parasite or virus in culture
# [1] = tested on: Human immunodeficiency virus 1; conditions: Human immunodeficiency virus 1, 3B, MT4, 96 h
# Description: Antiviral activity against HIV1 3B infected in human MT4 cells coinfected with HTLV1 assessed as reduction in virus-induced cytopathogenicity after 4 days by MTT assay
# [2] = tested on: Human immunodeficiency virus 1; conditions: Human immunodeficiency virus 1, 3B, CEM-SS, 144 h
# Description: Antiviral activity against HIV1 3B infected in human CEM-SS cells assessed as reduction in virus-induced cytopathogenicity after 6 days by MTS assay
# [3] = tested on: Human immunodeficiency virus 1; conditions: Human immunodeficiency virus 1, LAI, CEM-4
# Description: Antiviral activity against HIV1 LAI infected in human CEM4 cells assessed as inhibition of viral replication
# Hepatitis C virus [4] = conditions: Huh-7
# Description: Antiviral activity against Hepatitis C virus infected in human Huh7ET cells by luciferase reporter gene assay
# Hepatitis C virus [5] = conditions: Huh-7; remark: listed apart in the source
# Description: Antiviral activity against Hepatitis C virus infected in human HuH7 cells by luciferase reporter gene assay
# Hepatitis C virus [6] = conditions: Huh-7, 72 h
# Description: Antiviral activity against Hepatitis C virus infected in human Huh7ET cells after 72 hrs by luciferase reporter gene assay
# Hepatitis C virus [7] = tested on: Hepatitis C virus
# Description: Antiviral activity against Hepatitis C virus
# Hepatitis C virus [8] = conditions: 16 h
# Description: Antiviral activity against Hepatitis C virus after 16 hrs by cell-based assay
# Hepatitis C virus [9] = conditions: genotype 2b
# Description: Antiviral activity against Hepatitis C virus genotype 2b infected in human Huh-9-13 cells after overnight incubation by MTT assay
# Hepatitis C virus [10] = conditions: Huh-5-2, 72 h
# Description: Antiviral activity against Hepatitis C virus infected in human HuH5.2 cells after 72 hrs by luciferase reporter gene assay
# [11] = tested on: Human immunodeficiency virus 1; conditions: Human immunodeficiency virus 1, 3B, MT4
# Description: Antiviral activity against HIV1 3B infected in human MT4 cells assessed as reduction in virus-induced cytopathogenicity after 5 to 6 days by MTT assay
structure (smiles),measurement,setting,value
C/C=C/C[C@@H](C)[C@@H](O)[C@H]1C(=O)N[C@@H](CC)C(=O)N(C)CC(=O)N(C)[C@@H](CC(C)(C)O)C(=O)N[C@@H](C(C)C)C(=O)N(C)[C@@H](CC(C)C)C(=O)N[C@@H](C)C(=O)N[C@H](C)C(=O)N(C)[C@@H](CC(C)C)C(=O)N(C)[C@@H](CC(C)C)C(=O)N(C)[C@@H](C(C)C)C(=O)N1C,EC50,[1],0.279 µM
C/C=C/C[C@@H](C)[C@@H](O)[C@H]1C(=O)N[C@@H](CC)C(=O)N(C)CC(=O)N(C)[C@@H](C(C)C)C(=O)N[C@@H](C(C)C)C(=O)N(C)[C@@H](CC(C)C)C(=O)N[C@@H](C)C(=O)N[C@H](C)C(=O)N(C)[C@@H](CC(C)C)C(=O)N(C)[C@@H](CC(C)C)C(=O)N(C)[C@@H](C(C)C)C(=O)N1C,EC50,[1],0.054 µM
C/C=C/C[C@@H](C)[C@@H](O)[C@H]1C(=O)N[C@@H](CC)C(=O)N(C)C(OC(C)=O)C(=O)N(C)[C@@H](CC(C)C)C(=O)N[C@@H](C(C)C)C(=O)N(C)[C@@H](CC(C)C)C(=O)N[C@@H](C)C(=O)N[C@H](C)C(=O)N(C)[C@@H](CC(C)C)C(=O)N(C)[C@@H](CC(C)C)C(=O)N(C)[C@@H](C(C)C)C(=O)N1C (stereo partly specified),IC50,[2],0.119 µM
C/C=C/C[C@@H](C)[C@@H](OC(C)=O)[C@H]1C(=O)N[C@@H](CC)C(=O)N(C)C(OC(C)=O)C(=O)N(C)[C@@H](CC(C)C)C(=O)N[C@@H](C(C)C)C(=O)N(C)[C@@H](CC(C)C)C(=O)N[C@@H](C)C(=O)N[C@H](C)C(=O)N(C)[C@@H](CC(C)C)C(=O)N(C)[C@@H](CC(C)C)C(=O)N(C)[C@@H](C(C)C)C(=O)N1C (stereo partly specified),IC50,[2],0.115 µM
CC[C@@H]1NC(=O)[C@H]([C@H](O)[C@H](C)C/C=C/CO)N(C)C(=O)[C@H](C(C)C)N(C)C(=O)[C@H](CC(C)C)N(C)C(=O)[C@H](CC(C)C)N(C)C(=O)[C@@H](C)NC(=O)[C@H](C)NC(=O)[C@H](CC(C)C)N(C)C(=O)[C@H](C(C)C)NC(=O)[C@H](CC(C)C)N(C)C(=O)CN(C)C1=O,EC50,[1],0.46 µM
C/C=C/C[C@@H](C)[C@@H](O)[C@H]1C(=O)N[C@@H](CC)C(=O)N(C)[C@H](SCCN(CC)CC)C(=O)N(C)[C@@H](CC(C)C)C(=O)N[C@@H](C(C)C)C(=O)N(C)[C@@H](CC(C)C)C(=O)N[C@@H](C)C(=O)N[C@H](C)C(=O)N(C)[C@@H](CC(C)C)C(=O)N(C)[C@@H](CC(C)C)C(=O)N(C)[C@@H](C(C)C)C(=O)N1C,EC50,[3],0.0025 µM
C/C=C/C[C@@H](C)[C@@H](O)[C@H]1C(=O)N[C@@H](CC)C(=O)N(C)[C@@H](CSCCN2CCOCC2)C(=O)N(C)[C@@H](CC(C)(C)O)C(=O)N[C@@H](C(C)C)C(=O)N(C)[C@@H](CC(C)C)C(=O)N[C@@H](C)C(=O)N[C@H](C)C(=O)N(C)[C@@H](CC(C)C)C(=O)N(C)[C@@H](CC(C)C)C(=O)N(C)[C@@H](C(C)C)C(=O)N1C,EC50,[2],0.0949 µM
C/C=C/C[C@@H](C)[C@@H](O)[C@H]1C(=O)N[C@@H](CC)C(=O)N(C)[C@H](OC)C(=O)N(C)[C@@H](CC(C)(C)O)C(=O)N[C@@H](C(C)C)C(=O)N(C)[C@@H](CC(C)C)C(=O)N[C@@H](C)C(=O)N[C@H](C)C(=O)N(C)[C@@H](CC(C)C)C(=O)N(C)[C@@H](CC(C)C)C(=O)N(C)[C@@H](C(C)C)C(=O)N1C,EC50,[2],0.06 µM
C/C=C/C[C@@H](C)[C@@H](O)[C@H]1C(=O)N[C@@H](CC)C(=O)N(C)CC(=O)N(C)[C@@H](CC(C)C)C(=O)N[C@@H](C(C)C)C(=O)N(C)[C@@H](CC(C)C)C(=O)N[C@@H](C)C(=O)N[C@H](C)C(=O)N(C)[C@@H](CC(C)(C)O)C(=O)N(C)[C@@H](CC(C)C)C(=O)N(C)[C@@H](C(C)C)C(=O)N1C,EC50,[1],0.255 µM
C/C=C/C[C@@H](C)[C@@H](O)[C@H]1C(=O)N[C@@H](CC)C(=O)N(C)[C@H](SCCCN2CCOCC2)C(=O)N(C)[C@@H](CC(C)(C)O)C(=O)N[C@@H](C(C)C)C(=O)N(C)[C@@H](CC(C)C)C(=O)N[C@@H](C)C(=O)N[C@H](C)C(=O)N(C)[C@@H](CC(C)C)C(=O)N(C)[C@@H](CC(C)C)C(=O)N(C)[C@@H](C(C)C)C(=O)N1C,EC50,Hepatitis C virus [4],0.04 µM
C/C=C/C[C@@H](C)[C@@H](O)[C@H]1C(=O)N[C@@H](CC)C(=O)N(C)[C@@H](CSCCCN2CCOCC2)C(=O)N(C)[C@@H](CC(C)(C)O)C(=O)N[C@@H](C(C)C)C(=O)N(C)[C@@H](CC(C)C)C(=O)N[C@@H](C)C(=O)N[C@H](C)C(=O)N(C)[C@@H](CC(C)C)C(=O)N(C)[C@@H](CC(C)C)C(=O)N(C)[C@@H](C(C)C)C(=O)N1C,EC50,Hepatitis C virus [5],0.02 µM
C/C=C/C[C@@H](C)[C@@H](O)[C@H]1C(=O)N[C@@H](CC)C(=O)N(C)CC(=O)N(C)[C@@H](CC(C)(C)OCc2ccccc2)C(=O)N[C@@H](C(C)C)C(=O)N(C)[C@@H](CC(C)C)C(=O)N[C@@H](C)C(=O)N[C@H](C)C(=O)N(C)[C@@H](CC(C)C)C(=O)N(C)[C@@H](CC(C)C)C(=O)N(C)[C@@H](C(C)C)C(=O)N1C,EC50,Hepatitis C virus [6],0.41 µM
C/C=C/C[C@@H](C)[C@@H](O)[C@H]1C(=O)N[C@@H](CC)C(=O)N[C@H](C)C(=O)N(C)[C@@H](CC(C)C)C(=O)N(C/C=C(\C)CO)[C@@H](C(C)C)C(=O)N(C)[C@@H](CC(C)C)C(=O)N[C@@H](C)C(=O)N[C@H](C)C(=O)N(C)[C@@H](CC(C)C)C(=O)N(C)[C@@H](CC(C)C)C(=O)N(C)[C@@H](C(C)C)C(=O)N1C,EC50,Hepatitis C virus [7],0.05 µM
C/C=C/C[C@@H](C)[C@@H](O)[C@H]1C(=O)N[C@@H]([C@@H](C)O)C(=O)N(C)CC(=O)N(C)[C@@H](CC(C)C)C(=O)N[C@@H](C(C)C)C(=O)N(C)[C@@H](CC(C)C)C(=O)N[C@@H](C)C(=O)N[C@H](C)C(=O)N(C)[C@@H](CC(C)CO)C(=O)N(C)[C@@H](CC(C)C)C(=O)N(C)[C@@H](C(C)C)C(=O)N1C (stereo partly specified),EC50,Hepatitis C virus [8],< 3 µM
C/C=C/C[C@@H](C)[C@@H](O)[C@H]1C(=O)N[C@@H](CC)C(=O)N(C)[C@H](C)C(=O)N(CC)[C@@H](C(C)C)C(=O)N[C@@H](CC(C)C)C(=O)N(C)[C@@H](CC(C)C)C(=O)N[C@@H](C)C(=O)O[C@H](C(C)C)C(=O)N(C)[C@@H](CC(C)C)C(=O)N[C@@H](CC(C)C)C(=O)N(C)[C@@H](C(C)C)C(=O)N1C (cyclo(A[dHiv][NMeL]L[NMeV][MeBmt][Abu][dNMeA][NEtVal]L[NMeL])),EC50,Hepatitis C virus [9],0.037 µM
C/C=C/C[C@@H](C)[C@@H](O)[C@H]1C(=O)N[C@@H](CC)C(=O)N(C)[C@H](C)C(=O)N(CC)[C@@H](C(C)C)C(=O)N[C@@H](C(C)C)C(=O)N(C)[C@@H](CC(C)C)C(=O)N[C@@H](C)C(=O)N[C@H](C)C(=O)N(C)[C@@H](CC(C)C)C(=O)N(C)[C@@H](CC(C)C)C(=O)N(C)[C@@H](C(C)C)C(=O)N1C [ALISPORIVIR],EC50,Hepatitis C virus [10],0.025 µM
same,EC50,[11],0.063 µM
C/C=C/C[C@@H](C)[C@@H](O)[C@H]1C(=O)N[C@@H](CC)C(=O)N(C)CC(=O)N(C)[C@@H](CC(C)C)C(=O)N[C@@H](C(C)C)C(=O)N(C)[C@@H](CC(C)C)C(=O)N[C@@H](C)C(=O)N[C@H](C)C(=O)N(C)[C@@H](CC(C)C)C(=O)N(C)[C@@H](CC(C)C)C(=O)N(C)[C@@H](C(C)C)C(=O)N1C [CYCLOSPORINE],EC50,Hepatitis C virus [7],0.23 µM
same,EC50,[1],0.45 µM
C/C=C/C[C@@H](C)[C@@H](O)[C@H]1C(=O)N[C@@H](CC)C(=O)N(C)CC(=O)N(C)[C@@H]([C@@H](C)CC)C(=O)N[C@@H](C(C)C)C(=O)N(C)[C@@H](CC(C)C)C(=O)N[C@@H](C)C(=O)N[C@H](C)C(=O)N(C)[C@@H](CC(C)C)C(=O)N(C)[C@@H](CC(C)C)C(=O)N(C)[C@@H](C(C)C)C(=O)N1C [NIM811],EC50,[1],0.047 µM
C/C=C/C[C@@H](C)[C@@H](O)[C@H]1C(=O)N[C@@H](CC)C(=O)N(C)[C@H](SCCN(C)C)C(=O)N(C)[C@@H](CC(C)(C)O)C(=O)N[C@@H](C(C)C)C(=O)N(C)[C@@H](CC(C)C)C(=O)N[C@@H](C)C(=O)N[C@H](C)C(=O)N(C)[C@@H](CC(C)C)C(=O)N(C)[C@@H](CC(C)C)C(=O)N(C)[C@@H](C(C)C)C(=O)N1C [SCY 635],EC50,[3],0.045 µM
